Laboratory results taken from patent publication US8609135B2, “Anthracycline derivatives” (Nuclisome AB, priority 2004, dated 2013).
Read-outs that look alike come from different tables or passages of the source.

Key:
[1] = Dissolution of drug in 10% (wt/vol) sucrose solution; type: physicochemical; conditions: 0.5 mM in 10% (wt/vol) sucrose solution
Procedure: Compound 1 (3′-N-(4-hydroxy-3-iodobenzyl)-13-(R/S)-dihydrodaunorubicin, stereoisomeric mixture) and Compound 2 (3′-N-(4-Hydroxy-3-iodobenzyl)daunorubicin), structures are shown below, or doxorubicin (Sigma Aldrich, St. Louis, Mo., USA) were encapsulated into liposomes using the pH-gradient driven loading protocol by Mayer et al. The pH gradient across the liposome membrane was generated by exchanging the extravesicular 300 mM citrate buffer (pH 4) with 20 mM N-[2-hydroxyethyl]piperazine-N′-[2-ethanesulfonic acid] (HEPES) buffered 150 mM saline (HBS) (pH 7.5) on a Sephadex G-50 column. Doxorubicin was dissolved in HBS at a concentration of 1 mM. Compound 1 was dissolved at a concentration of 0.5 mM in 10% (wt/vol) sucrose solution. […] A preheated drug solution was added to the liposomes at a 0.2 drug-to-lipid molar ratio. The mixture was incubated for 15 min at a temperature of 60° C. with intermittent mixing using a Vortex-apparatus resulting in 100% drug encapsulation.

calf thymus DNA (CT DNA) [2] = assay: Fluorescence titration, binding to calf thymus DNA; conditions: room temperature, BPES buffer pH 7, n=3
Procedure: Type 1 calf thymus DNA sodium salt (Sigma-Aldrich Co., St Louis, M.O., USA) was hydrated in BPES buffer (6 mM Na2HPO4, 2 mM NaH2PO4, 1 mM EDTA, 185 mM NaCl, pH 7) at a concentration of approximately 2 mg/ml and sonicated at approximately 8 μA in a MSE Soniprep 150 ultrasonic disintegrator (Integrated Services TCP Inc., Palisades Park, N.J., USA) for 30 min in a water bath on ice. The sample was then dialyzed for 48 h against BPES using Slide-A-Lyzer® dialysis cassettes (10,000 MWCO) (Pierce, Rockford, Ill., USA). The final DNA concentration was determined spectrophotometrically on a HP8453 spectrophotometer (Hewlett-Packard Company Houston Tex., USA) at a wavelength of 260 nm using an extinction coefficient of 12,824 M (bp)^−1 cm^−1.
Fluorescence titration experiments were performed on a SPEX 1680 Fluorolog spectrofluorometer (SPEX Industries Inc., Edison, N.J., USA) at room temperature with λex=480 nm (slid width 2.5 mm) and λem=592 nm (slid width 2.5 mm). The initial free drug concentration was 1 μM. […] The concentration of bound drug was calculated by the difference between CT and Cf. Binding constants (Ki) and exclusion parameters (n) were calculated by plotting r/Cf versus r (Scatchard plot), where r is the number of moles of bound drug per mol DNA base pairs. Theoretical curves for the neighbor exclusion model were calculated by using the algorithm: r/Cf=Ki(1−nr)[(1−nr)/[1−(n−1)r]]^n−1 (J. Mol. Biol. 86, 469-489, 1974)
where Ki (M^−1) is the intrinsic binding constant and n (base pairs) is the exclusion parameter. The parameters Ki and n were varied to generate theoretical curves that closest fitted the experimental data.

[3] = Drug retention in liposomes; type: physicochemical; conditions: incubated in medium at 37° C. for 24 h
Procedure: Liposomes were composed of 1,2-distearoyl-sn-glycero-3-phosphatidyl-choline (DSPC), cholesterol, 1,2-distearoyl-sn-glycero-3-phosphatidyl-ethanolamine-N-[methoxy (poly-ethyleneglycol)-2000 (DSPE-PEG2000) at a molar ratio of 57:40:3. Liposomes were prepared by the lipid film hydration method. Briefly, cholesterol and lipids were dissolved in chloroform. The solvent was evaporated under a gentle stream of nitrogen gas and the lipid film was dried under vacuum overnight. The lipid film was hydrated with 300 mM citrate buffer (pH 4) for 1 h with intermediate vortex mixing at a lipid concentration of 20 mM at a temperature of 60° C. Liposomes were repetitively frozen in liquid nitrogen and thawed at a temperature of 60° C. five times before extrusion. Liposomes were extruded ten times through two stacked polycarbonate membranes filters (Whatman Inc. Nucleopore, Newton, Mass.) with a pore size of 100 nm at a room temperature using an Avanti Mini-extruder (Avanti Polar Lipids Inc., Alabaster, Ala.). […]
Liposomes were incubated at temperatures of 37° C. or 60° C. […] The fluorescence intensity of samples was determined at an excitation wavelength of 468 nm and an emission wavelength of 589 nm. The percentage of encapsulated drug after incubation was determined relative to the amount of encapsulated drug before incubation.

SKBR-3 cells = assay: Growth curves of SKBR-3 cells (toxicity); type: cell-based, human; conditions: SKBR-3 cell monolayers, 0.5 ng/ml, 2.5 h incubation
Procedure: Growth curves^125I-Compound 1, Compound 1, doxorubicin, or daunorubicin were dissolved in culture media to a concentration of 0.5 ng/ml. The specific activity of ^125I-Compound 1 was 100 kBq/ng. SKBR-3 cells were incubated with drug in 60 mm plastic Petri dishes as triplicates, for 2.5 h. Control-cells were incubated with ordinary culture medium. After incubation, the medium was removed from all dishes and cells were washed six times with serum-free medium. Cells were detached from dishes by adding 0.5 ml of trypsin/EDTA for 10 min at a temperature of 37° C. After re-suspension in 1 ml of culture media cells were counted using a coulter counter (Z2 Coulter Counter, Beckman Coulter) and sub-cultivated to 10^5 cells to generate growth curves. Growth curves were corrected for loss of cells at each sub-cultivation.

[4] = tested on: human tumour A431 cells (squamous carcinoma); assay: Binding of 125I-Compound 1 to permealised A431 cells (gamma counter, fluorescence microscopy); type: cell-based
Procedure: Human cultured tumour cells […] were grown as monolayer cultures using Ham's F-10 medium (Biochrom AG, Berlin, Germany) containing 10% fetal calf serum, glutamine (2 mM), streptomycin (100 μg/ml), and penicillin (100 IU/ml) at a temperature of 37° C. in a humidified 5% CO2 incubator.
Cultured human tumour A431 cells (squamous carcinoma) were grown on glass slides, cooled to a temperature of 4° C., and washed with phosphate buffer. Cells were inactivated in methanol for 15 minutes at a temperature of −20° C. and then quickly washed at a temperature of 4° C. with phosphate buffer. Cells were thereafter permealised by acetone treatment for 10 seconds at a temperature of 4° C. After drying cells were incubated with ^125I-Compound 1 at room temperature for one hour, washed, and analyzed for radioactivity using a gamma counter (1480 Wallac Wizard, Perkin Elmer, Wellesley, Mass., USA). In addition, cells were inspected by fluorescence microscopy.

calf thymus DNA (CT DNA) [5] = conditions: literature values; cited from earlier work
[6] = cited from earlier work
[7] = tested on: thyroid cancer, lymphomas, bladder carcinomas, sarcomas, ovarian carcinomas, leukemias; conditions: cited from earlier work

Compound | dissolution of drug [1] | n (exclusion parameter) (calf thymus DNA (CT DNA) [2]) [base pairs] | drug remaining encapsulated in liposomes [3] | cytotoxic effect (growth curves) (SKBR-3 cells) | localisation in cells by fluorescence microscopy [4] | n (exclusion parameter), literature value (calf thymus DNA (CT DNA) [5]) [base pairs] | cardiac toxicity up to congestive heart failure, share of patients ([6]; patients) | side effect alopecia, share of patients ([6]; patients) [%] | side effect nausea and vomiting, share of patients ([6]; patients) | acute dose-limiting toxicity: bone-marrow suppression, leukopenia, and stomatitis, share of treated patients ([6]; treated patients) [%] | overall response rate ([7]; bladder carcinomas) [%] | overall response rate ([7]; leukemias) [%] | overall response rate ([7]; lymphomas) [%] | overall response rate ([7]; ovarian carcinomas) [%] | overall response rate ([7]; sarcomas) [%] | overall response rate ([7]; thyroid cancer) [%]
COc1cccc2c1C(=O)c1c(O)c3c(c(O)c1C2=O)C[C@@](O)(C(C)=O)C[C@@H]3O[C@H]1C[C@@H](NCc2ccc(O)c(I)c2)[C@H](O)C(C)O1 (some centres unmarked) [Compound 2, 3′-N-(4-Hydroxy-3-iodobenzyl)daunorubicin] | did not dissolve completely | 3.7 |  |  |  |  |  |  |  |  |  |  |  |  |  | 
COc1cccc2c1C(=O)c1c(O)c3c(c(O)c1C2=O)C[C@@](O)(C(C)O)C[C@@H]3O[C@H]1C[C@@H](NCc2ccc(O)c(I)c2)[C@H](O)C(C)O1 (mixture of isomers) [Compound 1, 3′-N-(4-hydroxy-3-iodobenzyl)-13-(R/S)-dihydrodaunorubicin] |  | 3.4 | more than 90% | Neither of the latter compounds had any significant cytotoxic effect | bound to the cell nucleus and not located inside the cytoplasm |  |  |  |  |  |  |  |  |  |  | 
COc1cccc2c1C(=O)c1c(O)c3c(c(O)c1C2=O)C[C@@](O)(C(C)=O)C[C@@H]3O[C@H]1C[C@H](N)[C@H](O)[C@H](C)O1 [daunorubicin, Daunorubicin] |  | 3.6 |  | Neither of the latter compounds had any significant cytotoxic effect |  | 3.5 |  |  |  |  |  |  |  |  |  | 
COc1cccc2c1C(=O)c1c(O)c3c(c(O)c1C2=O)C[C@@](O)(C(=O)CO)C[C@@H]3O[C@H]1C[C@H](N)[C@H](O)[C@H](C)O1 [doxorubicin, Doxorubicin] |  | 3.9 | Approximately 80% | Neither of the latter compounds had any significant cytotoxic effect |  | 3.8 | 1-10% | 100 | 20-55% | 80 | 33 | 24 | 41 | 25 | 26 | 45
